# Literature values, collected in PubChem BioAssay AID1259409 (Chemical Carcinogenesis Research Information System (CCRIS), 2018).
# System: rodent chemically induced tumor inhibition, incidence and multiplicity
# Test: CCRIS tumor inhibitor studies
compound,measurement,setting,value
Cc1ccc(O)c(O)c1,"tumour outcome (control, treated, inhibition, significance)","Carcinogen: N-NITROSOBIS(2-HYDROXYPROPYL)AMINE, 53609-64-6, Dose [Inhibitor]: 0, 1.5% IN DIET FOR 30 WK BEGINNING POST CARCINOGEN TREATMENT (STUDY DURATION: 35 WK), Route [Inhibitor]: ORAL, Species: HAMSTER, Strain/Sex: SYRIAN/MALE, Target Tissue: Type of Lesion: PANCREAS: ADENOCARCINOMA, Dose [Carcinogen]: 500 MG/KG 1/WK FOR 5 WK, Promoter: NONE USED","8/17 (47%), 9/19 (47%), 0%, not significant"
c1ccc2c(c1)c1cccc3ccc4cccc2c4c31,"tumour outcome (control, treated, inhibition, significance)","Carcinogen: BENZO[A]PYRENE, 50-32-8, Dose [Inhibitor]: 5 UG IN 0.1 ML ACETONE 3/WK ADMINISTERED SIMULTANEOUSLY WITH CARCINOGEN FOR DURATION OF STUDY (STUDY DURATION: 368 D), Route [Inhibitor]: DERMAL, Species: MOUSE, Strain/Sex: ICR/FEMALE, Target Tissue: Type of Lesion: SKIN: PAPILLOMA, Dose [Carcinogen]: 5 UG IN 0.1 ML ACETONE 3/WK FOR DURATION OF STUDY, Promoter: NONE USED","14/50 (28%), 24/50 (48%), -71%, not calculated"
same,"tumour outcome (control, treated, inhibition, significance)","Carcinogen: BENZO[A]PYRENE, 50-32-8, Dose [Inhibitor]: 5 UG IN 0.1 ML ACETONE 3/WK ADMINISTERED SIMULTANEOUSLY WITH CARCINOGEN FOR DURATION OF STUDY (STUDY DURATION: 368 D), Route [Inhibitor]: DERMAL, Species: MOUSE, Strain/Sex: ICR/FEMALE, Target Tissue: Type of Lesion: SKIN: SQUAMOUS CARCINOMA, Dose [Carcinogen]: 5 UG IN 0.1 ML ACETONE 3/WK FOR DURATION OF STUDY, Promoter: NONE USED","10/50 (20%), 9/50 (18%), 10%, not calculated"
same,"tumour outcome (control, treated, inhibition, significance)","Carcinogen: BENZO[A]PYRENE, 50-32-8, Dose [Inhibitor]: 15 UG IN 0.1 ML ACETONE 3/WK ADMINISTERED SIMULTANEOUSLY WITH CARCINOGEN FOR DURATION OF STUDY (STUDY DURATION: 368 D), Route [Inhibitor]: DERMAL, Species: MOUSE, Strain/Sex: ICR/FEMALE, Target Tissue: Type of Lesion: SKIN: PAPILLOMA, Dose [Carcinogen]: 5 UG IN 0.1 ML ACETONE 3/WK FOR DURATION OF STUDY, Promoter: NONE USED","14/50 (28%), 33/50 (66%), -136%, not calculated"
same,"tumour outcome (control, treated, inhibition, significance)","Carcinogen: BENZO[A]PYRENE, 50-32-8, Dose [Inhibitor]: 15 UG IN 0.1 ML ACETONE 3/WK ADMINISTERED SIMULTANEOUSLY WITH CARCINOGEN FOR DURATION OF STUDY (STUDY DURATION: 368 D), Route [Inhibitor]: DERMAL, Species: MOUSE, Strain/Sex: ICR/FEMALE, Target Tissue: Type of Lesion: SKIN: SQUAMOUS CARCINOMA, Dose [Carcinogen]: 5 UG IN 0.1 ML ACETONE 3/WK FOR DURATION OF STUDY, Promoter: NONE USED","10/50 (20%), 27/50 (54%), -170%, not calculated"
CC(=O)NCCCCCCNC(C)=O,"tumour outcome (control, treated, inhibition, significance)","Carcinogen: 7,12-DIMETHYLBENZ[A]ANTHRACENE, 57-97-6, Dose [Inhibitor]: 0, 1% IN DRINKING WATER FOR DURATION OF STUDY (STUDY DURATION: 13 WK), Route [Inhibitor]: ORAL, Species: HAMSTER, Strain/Sex: SYRIAN/MALE, Target Tissue: Type of Lesion: CHEEK POUCH: TUMOR, Dose [Carcinogen]: 0.5% IN ACETONE/HEAVY MINERAL OIL (1:20) 2/WK FOR 11 WK, Promoter: NONE USED","13/13 (100%), 13/13 (100%), 0%, not significant"
same,"tumour outcome (control, treated, inhibition, significance)","Carcinogen: 7,12-DIMETHYLBENZ[A]ANTHRACENE, 57-97-6, Dose [Inhibitor]: 0, 500 MG/KG BW 3/WK FOR DURATION OF STUDY (STUDY DURATION: 13 WK), Route [Inhibitor]: INTRAPERITONEAL, Species: HAMSTER, Strain/Sex: SYRIAN/MALE, Target Tissue: Type of Lesion: CHEEK POUCH: TUMOR, Dose [Carcinogen]: 0.5% IN ACETONE/HEAVY MINERAL OIL (1:20) 2/WK FOR 11 WK, Promoter: NONE USED","13/13 (100%), 13/13 (100%), 0%, not significant"
same,"tumour outcome (control, treated, inhibition, significance)","Carcinogen: N-METHYL-N-NITROSOUREA [684-93-5], Dose [Inhibitor]: 1000 PPM IN DIET FOR 19 WK BEGINNING 1 WK PRIOR TO FIRST CARCINOGEN DOSE (STUDY DURATION: 19 WK), Route [Inhibitor]: ORAL, Species: RAT, Strain/Sex: SPRAGUE-DAWLEY/FEMALE, Target Tissue: Type of Lesion: MAMMARY GLAND: TUMOR, Dose [Carcinogen]: 40 MG/KG BW ONCE (STUDY DURATION: 19 WK), Promoter: NONE","18/20 (90%), 17/20 (85%), 6% not significant"
same,"tumour outcome (control, treated, inhibition, significance)","Carcinogen: N-METHYL-N-NITROSOUREA [684-93-5], Dose [Inhibitor]: 2000 PPM IN DIET FOR 19 WK BEGINNING 1 WK PRIOR TO FIRST CARCINOGEN DOSE (STUDY DURATION: 19 WK), Route [Inhibitor]: ORAL, Species: RAT, Strain/Sex: SPRAGUE-DAWLEY/FEMALE, Target Tissue: Type of Lesion: MAMMARY GLAND: TUMOR, Dose [Carcinogen]: 40 MG/KG BW ONCE (STUDY DURATION: 19 WK), Promoter: NONE","18/20 (90%), 17/20 (85%), 6%, not significant"
[O]=[W](=[O])([OH])[OH],outcome,"Carcinogen: N-NITROSO-N-METHYLUREA, 684-93-5, Dose [Inhibitor]: 0, 150 PPM IN DRINKING WATER BEGINNING AT 35 D OF AGE (STUDY DURATION:198 D), Route [Inhibitor]: ORAL, Species: RAT, Strain/Sex: SPRAGUE-DAWLEY/FEMALE, Target Tissue: Type of Lesion: MAMMARY GLAND: CARCINOMA, Dose [Carcinogen]: 5 MG/100 G BW ONCE AT 50 D OF AGE, Promoter: NONE USED","50%, 79%, -58%, p<0.05 at 125 d; 91%, 96%, -5%, not calculated at 198 d"
same,"tumour outcome (control, treated, inhibition, significance)","Carcinogen: N-NITROSOSARCOSINE ETHYL ESTER, 1130-69-4, Dose [Inhibitor]: 100 PPM IN DRINKING WATER DAILY FOR 19 WK STARTING 3 WK PRIOR TO START OF CARCINOGEN TREATMENT (STUDY DURATION: 19 WK), Route [Inhibitor]: ORAL, Species: RAT, Strain/Sex: SPRAGUE-DAWLEY/MALE, Target Tissue: Type of Lesion: ESOPHAGUS: CARCINOMA, Dose [Carcinogen]: 10 ML/KG BW 2/WK FOR 8 WK, Promoter: NONE USED","80%, 80%, 0%, not significant"
same,"tumour outcome (control, treated, inhibition, significance)","Carcinogen: N-NITROSOSARCOSINE ETHYL ESTER, 1130-69-4, Dose [Inhibitor]: 100 PPM IN DRINKING WATER DAILY FOR 19 WK STARTING 3 WK PRIOR TO START OF CARCINOGEN TREATMENT (STUDY DURATION: 19 WK), Route [Inhibitor]: ORAL, Species: RAT, Strain/Sex: SPRAGUE-DAWLEY/MALE, Target Tissue: Type of Lesion: FORESTOMACH: CARCINOMA, Dose [Carcinogen]: 10 ML/KG BW 2/WK FOR 8 WK, Promoter: NONE USED","70%, 80%, -14%, not significant"
same,"tumour outcome (control, treated, inhibition, significance)","Carcinogen: N-NITROSOSARCOSINE ETHYL ESTER, 1130-69-4, Dose [Inhibitor]: 100 PPM IN DRINKING WATER DAILY FOR 30 WK STARTING 3 WK PRIOR TO START OF CARCINOGEN TREATMENT (STUDY DURATION: 30 WK), Route [Inhibitor]: ORAL, Species: RAT, Strain/Sex: SPRAGUE-DAWLEY/MALE, Target Tissue: Type of Lesion: ESOPHAGUS: CARCINOMA, Dose [Carcinogen]: 10 ML/KG BW 2/WK FOR 8 WK, Promoter: NONE USED","91%, 86%, 5%, not significant"
same,"tumour outcome (control, treated, inhibition, significance)","Carcinogen: N-NITROSOSARCOSINE ETHYL ESTER, 1130-69-4, Dose [Inhibitor]: 100 PPM IN DRINKING WATER DAILY FOR 30 WK STARTING 3 WK PRIOR TO START OF CARCINOGEN TREATMENT (STUDY DURATION: 30 WK), Route [Inhibitor]: ORAL, Species: RAT, Strain/Sex: SPRAGUE-DAWLEY/MALE, Target Tissue: Type of Lesion: FORESTOMACH: CARCINOMA, Dose [Carcinogen]: 10 ML/KG BW 2/WK FOR 8 WK, Promoter: NONE USED","100%, 100%, 0%, not significant"
